Assay results from paper PMC8635125, “A Novel Dibenzoxazepine Attenuates Intracellular Salmonella Typhimurium Oxidative Stress Resistance” (Microbiology Spectrum, 2021).

Assays:
[1] = system: intracellular S. Typhimurium in RAW264.7 cells; assay: CFU assay of bacterial growth in macrophages; format: cell-based, Salmonella enterica serovar Typhimurium; conditions: submicromolar concentrations, with gentamicin 20 mg/L, 24 h
Experimental: Overnight cultures of S. Typhimurium were diluted 1:100 in fresh LB broth and incubated for 2 h at 37°C. The bacteria were then collected and suspended in PBS to an OD600 of 0.6. RAW264.7 cells seeded in a 6-well plate were infected with S. Typhimurium at an MOI of 25 for 1 h. After infection, the cells were washed, exposed to 100 mg/L gentamicin for 1 h, and treated with SW14 (0.25 to 1 μM) in combination with 20 mg/L gentamicin for 24 h. Then, the infected cells were washed and lysed with 0.1% Triton X-100 in PBS for 10 min at 37°C to release the intracellular bacteria. The cell lysates were serially diluted in PBS, spread on LB agar plates, and incubated at 37°C for 18 h. The bacterial colonies on the plates were enumerated and expressed as CFU.

S. Typhimurium NL08.10 = assay: MIC assay (broth microdilution); format: cell-based, Salmonella Typhimurium; conditions: Salmonella enterica, TYPHIMURIUM
Experimental: (§1) The minimal inhibitory concentration (MIC) of each test compound against the individual bacterial strains was determined by the broth microdilution method following the guidelines recommended by the Clinical and Laboratory Standards Institute (CLSI) ([27]).

S. Typhimurium SB10 = assay: MIC assay (broth microdilution); format: cell-based, Salmonella Typhimurium; conditions: Salmonella enterica, TYPHIMURIUM
Experimental: as §1

[2] = system: S. Typhimurium ATCC 14028; assay: MIC assay (broth microdilution); format: cell-based, Salmonella Typhimurium
Experimental: as §1

S. Typhimurium SA10 = assay: MIC assay (broth microdilution); format: cell-based, Salmonella Typhimurium; conditions: Salmonella enterica, TYPHIMURIUM; Table S1(B), SA10
Experimental: as §1

[3] = system: S. Typhimurium ATCC 14028; assay: Analysis of bacterial susceptibility to H2O2 (CFU); format: cell-based, Salmonella enterica serovar Typhimurium; conditions: SW14 0.5 μM, 1 h
Experimental: Overnight-grown S. Typhimurium cultured in LB medium were diluted 1:50 in LPM medium or LB medium followed by incubation at 37°C for 3 h. The bacterial suspension was adjusted to an OD600 of 0.2 in fresh LPM medium or LB medium, exposed to SW14 and H2O2 for 1 h at 37°C with agitation, then serially diluted 10-fold in PBS, and spread on LB agar plates. After incubation at 37°C for 18 h, the number of colonies was counted, and the results are expressed as CFU/mL.

[4] = system: S. Typhimurium ATCC 14028; assay: Efflux pump activity (Hoechst 33342 accumulation assay); format: cell-based, Salmonella enterica serovar Typhimurium; conditions: data not shown in text; Fig. S2
Experimental: Figure S2. The accumulation of Hoechst 33342 in S. Typhimurium ATCC 14028 treated
with escalated concentrations of SW14 for 1 h in the LPM medium was measured using a
fluorescence microplate reader. The data are presented as the mean ± SD (n = 3 per group).
ns: non-significant, P > 0.05; ***P < 0.001; ****P < 0.0001.
Hoechst 33342 accumulation assay
Overnight-grown S. Typhimurium cultured in LB medium was diluted 1:50 in LPM
medium and incubated at 37°C for 3 h. The bacterial suspension was adjusted to an OD600
of 0.1 in fresh LPM medium supplemented with 2.5 µM Hoechst 33342 (Thermo Fisher
Scientific) followed by treatment of mock (DMSO) or SW14 (0.03125 – 8 µM in DMSO)
for 1 h. Bacterial cells which were treated with high temperature (90° C) for 10 min (heat-
killed) rapidly accumulated Hoechst 33342 and served as positive control. Fluorescence
was monitored on a SpectraMax M5 (Molecular devices) with a 355 nm excitation filter
and 460 nm emission filter. The percent inhibition was calculated by the equation: 100 ´
[(SW14-treated – mock) / (Heat-killed – mock)].

[5] = system: multidrug-resistant S. Typhimurium isolates 0911R and NL08.10 in RAW264.7 cells; assay: HCA of intracellular multidrug-resistant isolates in macrophages; format: cell-based, Salmonella enterica serovar Typhimurium; conditions: 0911R and NL08.10, gentamicin, 24 h
Experimental: (§2) Overnight cultures of RFP-expressing S. Typhimurium were prepared for infection by 1:100 dilution in fresh LB broth and incubation for 2 h at 37°C. The bacteria were then collected by centrifugation at 6,000 × g for 3 min and suspended in phosphate-buffered saline (PBS; pH 7.2) to an optical density of 0.6 at 600 nm, which was equivalent to 5 × 10^8 CFU/mL. RAW264.7 macrophages were seeded in 96-well black clear-bottom plates (Greiner) and incubated for 20 h followed by infection with RFP-expressing S. Typhimurium at a multiplicity of infection (MOI) of 50 for 1 h. […] Afterward, the cells were washed and stained with CellTracker Green (Thermo Fisher Scientific) for 30 min in serum-free DMEM followed by fixation in 3.7% formaldehyde (Sigma-Aldrich) for 20 min and stained with 0.2 mg/L DAPI (4′,6-diamidino-2-phenylindole; AAT Bioquest) for 30 min. Images of individual wells were captured and analyzed using a high-content imaging system (ImageXpress Micro 4; Molecular Devices). The CC50 and 50% effective concentration (EC50) values against intracellular bacteria of each compound were determined using CalcuSyn software (Biosoft).

[6] = HCA cytotoxicity toward infected macrophages (nuclear staining); format: cell-based, murine; conditions: mouse, RAW264.7 macrophages infected with S. Typhimurium, infected RAW264.7 cells, read-out: 50% cytotoxic concentration (CC50) toward macrophages
Experimental: as §2

S. Typhimurium 0911R = assay: microbe, parasite or virus in culture; format: cell-based, Salmonella Typhimurium; conditions: Salmonella enterica, TYPHIMURIUM
Experimental: as §1

[7] = system: ROS levels in Salmonella-infected RAW264.7 cells; assay: Analysis of ROS in macrophages (H2DCFDA); format: cell-based, murine; conditions: 1 h; SW14 at concentrations up to 8 μM
Experimental: RAW264.7 macrophages were seeded in 96-well black plates and infected by S. Typhimurium ATCC 14028 at an MOI of 25 for 1 h. After infection, the cells were washed, exposed to 100 mg/L gentamicin for 1 h, washed with warm Krebs-Ringer phosphate buffer (KRP buffer; 120 mM NaCl, 5 mM KCl, 1.7 mM KH2PO4, 8.3 mM Na2HPO4, 10 mM glucose, 1 mM CaCl2, 1.5 mM MgCl2, pH 7.3) and stained with H2DCFDA at 37°C with 5% CO2 for 45 min. The cells were then washed with KRP buffer and treated with SW14 or PMA at the desired concentrations in KRP buffer with 10% FBS. Fluorescence signals at 488/525 nm (excitation/emission) were measured using a SpectraMax M5 Microplate Reader (Molecular Devices).

[8] = system: ciprofloxacin-resistant S. Typhimurium strains SA10 and SB10 in RAW264.7 cells; assay: HCA of intracellular ciprofloxacin-resistant strains in macrophages; format: cell-based, Salmonella enterica serovar Typhimurium; conditions: SA10 and SB10, gentamicin, 24 h
Experimental: as §2

Clc1ccc2c(c1)C(NCCN1CCNCC1)=Nc1ccccc1O2 [SW14]
viability of intracellular Salmonella (CFU assay) [1]: potent suppressive effect | MIC (S. Typhimurium NL08.10): > 64 µg/mL | MIC (S. Typhimurium SB10): > 64 µg/mL | MIC ([2]; Salmonella enterica): > 64 µg/mL | MIC ([2]; Table S1(B), ATCC 14028): > 64 µg/mL | MIC (S. Typhimurium SA10): > 64 µg/mL | susceptibility of S. Typhimurium to H2O2 ([3]; minimal LPM medium): significantly increased | susceptibility of S. Typhimurium to H2O2 ([3]; nutrient-rich LB broth): not in nutrient-rich LB broth | efflux pump activity in S. Typhimurium [4]: efflux pump suppressive effect | intracellular replication of MDR S. Typhimurium isolates [5]: remained susceptible | CC50 at 24 h [6]: 23.5 µM | MIC (S. Typhimurium 0911R): > 64 µg/mL | ROS level (H2DCFDA fluorescence signal) in infected macrophages [7]: did not observe any significant change | intracellular proliferation of ciprofloxacin-resistant isolates [8]: highly sensitive
